{"source": "ChEMBL document CHEMBL3045274", "about": "“Xyloccensins QV, six new 8,9,30-phragmalin ortho ester antifeedants from the Chinese mangrove Xylocarpus granatum” (Tetrahedron, 2005)", "note": "Activity calls are given as the source filed them. The rule behind the calls is not given here."}
{"tested_on": "Mythimna separata", "test": "Antifeedant activity against third instar larvae of Mythimna separata (Oriental armyworm) in compound treated leaf disk at 500 ppm", "format": "functional, organism-based"}
{"compound": "COC(=O)C[C@@H]1[C@@]2(C)C[C@@]3(O)[C@@](O)([C@@H]2OC(C)=O)[C@@H]2O[C@]4(C)O[C@]5(C[C@@H](OC(C)=O)[C@@]6(C)C(=CC(=O)O[C@@H]6c6ccoc6)[C@]25O4)[C@@]13C", "Activity": "inactive"}
{"compound": "COC(=O)[C@H](OC(C)=O)[C@H]1[C@]2(C)C[C@]3(O)[C@H]([C@H]2OC(C)=O)[C@H]2O[C@@]4(C)O[C@@]5(CC[C@@]6(C)[C@H](c7ccoc7)OC(=O)C[C@@]6(O)[C@@]25O4)[C@]13C", "Activity": "inactive"}
{"compound": "COC(=O)[C@@H](O)[C@@H]1[C@@]2(C)C[C@@]3(O)[C@@](O)([C@@H]2OC(C)=O)[C@@H]2O[C@]4(C)O[C@]5(C[C@@H](OC(C)=O)[C@@]6(C)C(=CC(=O)O[C@@H]6c6ccoc6)[C@]25O4)[C@@]13C", "Activity": "inactive"}
{"compound": "COC(=O)[C@@H](O)[C@@H]1[C@@]2(C)C[C@@]3(O)[C@@](OC(C)=O)([C@@H]2OC(C)=O)[C@@H]2O[C@]4(C)O[C@]5(C[C@@H](OC(C)=O)[C@@]6(C)C(=CC(=O)O[C@@H]6c6ccoc6)[C@]25O4)[C@@]13C", "Activity": "inactive"}
{"compound": "COC(=O)[C@H](OC(C)=O)[C@H]1[C@]2(C)C[C@]3(O)[C@@](OC(C)=O)([C@H]4O[C@@]5(C)O[C@@]6(CC[C@@]7(C)[C@H](c8ccoc8)OC(=O)C[C@@]7(O)[C@@]46O5)[C@]13C)[C@H]2OC(C)=O", "Activity": "Active"}
{"compound": "COC(=O)C[C@@H]1[C@@]2(C)C[C@@]3(O)[C@@](OC(C)=O)([C@@H]2OC(C)=O)[C@@H]2O[C@]4(C)O[C@]5(C[C@@H](OC(C)=O)[C@@]6(C)C(=CC(=O)O[C@@H]6c6ccoc6)[C@]25O4)[C@@]13C", "Activity": "inactive"}
{"compound": "COC(=O)[C@@H](OC(C)=O)[C@@H]1[C@@]2(C)C[C@@]3(O)[C@@](O)([C@@H]2OC(C)=O)[C@@H]2O[C@]4(C)O[C@]5(C[C@@H](OC(C)=O)[C@@]6(C)C(=CC(=O)O[C@@H]6c6ccoc6)[C@]25O4)[C@@]13C", "Activity": "Active"}
{"compound": "COC(=O)[C@@H](O)[C@@H]1[C@@]2(C)C[C@@]3(O)[C@H]([C@H]4O[C@]5(C)O[C@]6(C[C@@H](OC(C)=O)[C@@]7(C)C(=CC(=O)O[C@@H]7c7ccoc7)[C@]46O5)[C@@]13C)[C@@H]2OC(C)=O", "Activity": "inactive"}
